Several values for one entry are separate records, joined by “and”; a condition that tells them apart may be missing. Identical values can stand only once. Like-named read-outs stand apart in the source and are kept apart here.
Experiments:
normal lymphocytes = assay: Human cell line experiments, AlamarBlue, normal lymphocytes; type: cell-based; settings: for EC50: Hs normal lymphocytes, 72 hours, read-out: EC50 against normal lymphocytes; for cytotoxicity against cultured human lymphocytes: at 100 μM
Description: page 4: […] 418one in 50% (v/v) sulfuric acid) and one volume of 2,3-Butanedione monoxime (80 mM 2,3- 419Butanedione monoxime in 5% (v/v) acetic acid). After plates were sealed with transparent sealing 420tape to prevent evaporation and incubated overnight in the dark place at room temperature. After 421incubation, the plates were heated at 95 °C for 15 min in dark place, and kept for 30 min before 422measuring at 466 nm suing a Synergy H1 Hybrid Reader (BioTek). Analyses were performed using 423Microsoft Excel and Graph Pad Prism. 424HsATC activity assay. The enzymatic assay was performed as described herein above for 425enzymatic assay of PfATC with minor modifications. Briefly, the reaction was carried out at room 426temperature in a total volume of 150 μl of 10 mM L-aspartate and 5 mM carbamoyl phosphate 427saturated substrate solution in 50 mM Tris-Acetate buffer pH 8.3. hsATC was pre-incubated with 428inhibitor and L-Asp for 10 min at room temperature on a shaker. The reaction was initiated by 429adding CP and stopped after 5 min with […] color mix. Then the plate was covered by sealing 430tape and kept in dark place at room temperature and then heated to 95 °C for 15min in dark and kept 431the plate in the dark for another 30 min before measuring the absorbance at 466 nm suing a Synergy 432H1 Hybrid Reader (BioTek). Analyses were performed using Microsoft Excel and Graph Pad 433Prism. 434Human cell line experiments. The cell lines A375 (melanoma), H1299 (lungca), MCF7 435(breastca), REC-1 (mantel cell lymphoma, SUDHL2 (diffuse large B-cell lymphoma) and normal 436lymphocytes (obtained from tonsils) were cultured in RPMI 1640 (Lonza BioWhittaker, 437Walkersville, MD, USA) with 10% fetal bovine serum (FBS; HyClone Thermo Scientific, 438Waltham, MA, USA). Cells were plated in 96-wells plates and incubated with increasing 439concentrations of compounds for 72 hours as indicated. All experiments were performed in page 5: 440triplicate. AlamarBlue (Thermo Fisher Scientific, Waltham, MA USA) was added eight hours prior 441to read-out (extinction 560nm, emission 590nm). […] A freshly prepared protein 443solution at a concentration of 10 mg ml -1 and immediately used in crystallization trials. The 444screening for crystallization conditions for PfATC was performed using a high-through 445crystallization robot (Gryphon, Art Robbins) against commercially available sparse-matrix 446screening kits (JCSG plus and PACT premier; Molecular Dimensions Ltd.). All experiments were 447performed at 293 K using the sitting drop vapor diffusion technique in 96 well MRC2 plates 448(Molecular Dimensions Ltd.). Equal volumes (0.2 μL) of protein solution and crystallization 449reagent were equilibrated against 50 μL of reservoir solution. Medium size single crystals appeared 450overnight in various conditions containing PEG3350/4000. The apo-crystals were soaked for 10 […] 452the solution plus 20% glycerol, flash-cooled and stored in liquid nitrogen. The flashed cooled 453crystals was shipped to […], Deutsches Elektronen-Synchrotron DESY Beamline P11. […] The purified PfATC […] 457stocks in 100% DMSO) at a molar ratio of 1:5. The mixture was incubated at 20 °C for 40 minutes, 458then centrifugation was performed to remove the precipitate. The supernatant was immediately 459used in crystallization trials. The crystallization reagent were the same as apo crystallization […] The crystals were flash- 461cooled and stored in liquid nitrogen, and was shipped to […], Deutsches Elektronen- 462Synchrotron DESY Beamline P11.

PfATC = PfATC (Plasmodium falciparum, UniProt A0A5K1K910); assay: biochemical; settings: for IC50: in vitro activity assay, PfATC 50 nM, 2 mM CP, 1 mM aspartate, read-out: PfATC IC50
Chain of PfATC (A0A5K1K910 entry or part of it): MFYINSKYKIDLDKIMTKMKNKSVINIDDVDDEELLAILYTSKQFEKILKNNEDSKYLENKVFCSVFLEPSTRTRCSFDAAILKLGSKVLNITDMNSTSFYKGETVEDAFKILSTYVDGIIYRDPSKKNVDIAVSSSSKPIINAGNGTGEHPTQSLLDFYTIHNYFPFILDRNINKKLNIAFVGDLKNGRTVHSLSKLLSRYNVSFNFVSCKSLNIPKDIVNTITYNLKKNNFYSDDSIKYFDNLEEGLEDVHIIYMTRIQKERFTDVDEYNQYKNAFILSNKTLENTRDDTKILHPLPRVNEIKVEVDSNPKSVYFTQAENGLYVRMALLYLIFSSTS
Description: Following washing with Lysis buffer
Excess imidazole was removed and the His-tag was cleaved
400Then, the sample was loaded onto a 5 ml HiTrap SP HP column (GE Healthcare, USA) and
410PfATC activity assay. Enzymatic reactions were performed in a total volume of 150 µL in 50 mM
Small-molecule dose-response curves were
The reactions were initiated by adding CP and quenched after 10 min with
After plates were sealed with transparent sealing
420tape to prevent evaporation and incubated overnight in the dark place at room temperature. After
Analyses were performed using
The enzymatic assay was performed as described herein above for
Briefly, the reaction was carried out at room
The reaction was initiated by
Then the plate was covered by sealing
430tape and kept in dark place at room temperature and then heated to 95 °C for 15min in dark and kept

HepG2 cells = assay: Cytotoxicity on cultured human HepG2 cells; type: cell-based; settings: at a concentration of 100 μM

SMILES	EC50 (normal lymphocytes)	cytotoxicity against cultured human lymphocytes (normal lymphocytes)	IC50 (PfATC)	EC50 (normal lymphocytes; Homo sapiens, Lymphocyte)	cytotoxic effect on cultured human HepG2 cells (HepG2 cells)	mechanism of inhibition (PfATC; with CP and Asp, 0, 200 and 400 nM BDA-04, one substrate fixed (2 mM CP or 1 mM Asp))
CC(C)(C)OC(=O)Nc1sc(-c2ccccc2)cc1C(=O)NCCO [BDA-14]	> 1000 µM	no cytotoxicity	0.115 µM and 0.114 µM	–	–	–
COc1cccc(CCNC(=O)c2cc(-c3ccccc3)sc2NC(=O)OC(C)(C)C)c1 [BDA-24]	911 µM	–	0.103 µM	–	–	–
CC(C)(C)OC(=O)Nc1sc(-c2ccccc2)cc1C(=O)NCCc1ccccc1 [BDA-04]	–	no cytotoxicity	0.0772 µM	~1000 µM	no cytotoxic effect	noncompetitive inhibitor
CC(C)(C)OC(=O)Nc1sc(-c2ccccc2)cc1C(=O)NCCc1ccc(O)cc1 [BDA-11]	757 µM	–	0.0456 µM and 0.046 µM and 0.0457 µM	–	–	–

Reference: publication PMC9585585, “Discovery of Small-Molecule Allosteric Inhibitors of PfATC as Antimalarials” (Journal of the American Chemical Society, 2022)
